{"source": "patent US9532961B2", "about": "“Method and kit for administering γ-glutamyl-D-cysteine for the prevention of reperfusion injury following ischemic stroke” (Rosalind Franklin University of Medicine and Science, priority 2005, dated 2017)", "key": {"heart and kidney": {"system": "heart and kidney", "conditions": "heart and kidney (refs. 29, 45); cited from earlier work"}, "Na/Ca exchange": {"biological_target": "T1, Na/Ca exchange (Homo sapiens, UniProt P32418)", "T1 construct": "host or cells: cardiac and renal tissues (as cited)", "conditions": "cardiac and renal tissues (ref. 26); cited from earlier work"}, "[1]": {"system": "cultured bovine blood-brain barrier endothelial cells", "test": "Intracellular calcium (Fluo-4 fluorescence) in cultured blood-brain barrier cells under simulated ischemia-reperfusion", "type": "cell-based", "conditions": "20 μM KB-R7943 (reverse Na/Ca exchange inhibition), methanesulphonate", "procedure": "FIG. 4 is a bar graph of data showing that when cerebral capillary endothelial cells are exposed to ischemic conditions, intracellular calcium concentration increases and remains elevated during reperfusion; the elevation in intracellular calcium is prevented by pharmacological inhibition of the Na/H antiporter. Cultured bovine blood-brain barrier cells were treated as described above (FIG. 2). […] The rise in intracellular calcium observed during reperfusion was prevented by inhibiting Na/H antiport (100 μM DMA). *P<0.05 compared to control. +P<0.05 compared to reperfusion. Values are mean±SD. Intracellular calcium was measured with fluorescent imaging, using Fluo-4.\nFIG. 5 is a bar graph of data showing that when cerebral capillary endothelial cells are exposed to ischemic conditions, intracellular calcium concentration increases and remains elevated during reperfusion; the elevation in intracellular calcium is prevented by pharmacological inhibition of reverse movement of the Na/Ca exchanger. Cultured bovine blood-brain barrier cells were treated as described above (FIG. 2). […] The rise in intracellular calcium observed during reperfusion was prevented by inhibiting reverse movement of Na/Ca exchange (20 μM KB-R7943). *P<0.05 compared to control. +P<0.05 compared to reperfusion. Values are mean±SD. Intracellular calcium was measured with fluorescent imaging, using Fluo-4. […]"}}, "note": "“Also recorded” adds a separate entry of the source.", "data": [{"smiles": "CS(=O)(=O)O.N=C(N)SCCc1ccc(OCc2ccc([N+](=O)[O-])cc2)cc1", "note": "[KB-R7943, 2-[2-[4-(4-nitrobenzyloxy)phenyl]ethyl]isothiourea methanesulphonate]", "values": [{"measurement": "cytoprotection under conditions of ischemia and reperfusion", "setting": "heart and kidney", "result": "cytoprotective"}, {"measurement": "direction selectivity of Na/Ca exchange inhibition", "setting": "Na/Ca exchange", "result": "greater affinity for suppressing movement in the reverse direction"}, {"measurement": "effect on Na/Ca exchange", "setting": "Na/Ca exchange", "result": "inhibits Na/Ca exchange"}, {"measurement": "rise in intracellular calcium observed during reperfusion", "setting": "[1]", "result": "prevented; also recorded: inhibits the rise in intracellular calcium"}]}]}
